Results from patent US8685976B2, “Cell adhesion promoting agent and method of promoting cell adhesion” (Kyoto University, priority 2008, dated 2014).

Columns and labels:
[1] = tested on: HepG2 cells; test: Cell adhesion assay by addition, HepG2 cells; assay type: cell-based; details: 0.6-60 μM in medium, 3-hour incubation, reattachment after trypsin treatment
Protocol: HepG2 cells were cultured in MEM supplemented with 10% fetal bovine serum (FBS) and 1% penicillin/streptomycin at 37° C. under 5% CO2. Jurkat cells were cultured in RPMI-1640 supplemented with 10% fetal bovine serum (FBS) and 1% penicillin/streptomycin at 37° C. under 5% CO2. For the screening of small molecule compounds, 100 μL of HepG2 suspension (2×10^5 cells/mL) was plated into 96-well plates supplied with each compound at a concentration of 20 μg/mL. After 3, 16, and 24 hours, the cells were subjected to microscopic observation to examine phenotypic changes. CHO K1 cells and CHO mutant cell lines were maintained in Ham's F-12 medium supplemented with 7.5% fetal bovine serum.
1 μL each of an aqueous solution of adhesamine (1), Type I collagen, poly-L-lysine hydrochloride, poly-L-ornithine hydrobromide, and fibronectin at a concentration of 50, 500, and 5000 μg/ml, was added to 96-well plate. […] After 3-hour incubation at 37° C., non-adherent cells were removed by washing each well with PBS three times, and the attached cells were counted with a Neubauer counting chamber (Digital Bio). […] […] Each assay was conducted in triplicate, and the means and standard derivations were calculated. […]

[2] = tested on: HepG2 cells; test: Cell growth assay (WST-8), HepG2; assay type: cell-based
Protocol: (§1) In (A) and (B), the cell growth was determined at 24, 48, and 72 hours after the addition of adhesamine (1) (6 μM). The cell growth in the presence of 1% (v/v) DMSO was assigned a value of 100%. The data shown are means±SD for a minimum of three experiments. (C) to (F) show the rearrangement of actin filaments in HepG2 and Jurkat cells in the presence of adhesamine (6 μM). Brightfield images (C and D) and confocal images (E and F) are shown. HepG2 (C and E) or Jurkat (D and F) cells were plated for 5 hours or 3 hours, respectively, and actin cytoskeletal was visualized using rhodamine-labeled phalloidin.
(§2) 1 μL DMSO solution of adhesamine (1) was added to 96-well plate at a concentration of 600 μM. […] After incubation for indicated time, the cell viability was measured using Cell Counting Kit-8 (Dojindo Molecular Technologies, Inc., Gaithersburg, Md.), which contains a tetrazolium salt (WST-8) that produces a water-soluble formazan dye by NADH dehydrogenases in living cells. […] The optical density (OD) of the solution was read by a microplate reader, using a test wavelength at 450 nm and a reference wavelength at 650 nm. […] Each assay was conducted in triplicate, and the means and standard derivations were calculated for a minimum of three independent experiments.

[3] = tested on: Jurkat cells; test: Cell growth assay (WST-8), Jurkat; assay type: cell-based, human
Protocol: as §1, §2

[4] = tested on: Jurkat cells; test: Visualization of actin cytoskeleton with rhodamine-conjugated phalloidin, Jurkat; assay type: cell-based, human; details: 6 μM
Protocol: as §1
Jurkat or HepG2 cells were plated onto glass coverslips in the presence of adhesamine (6 μM). They were fixed after 5 or 3 hours, respectively, with 4% paraformaldehyde for 20 minutes. The cell membrane was permeabilized by 5-min treatment with 0.1% Triton X-100 (in PBS). Samples were washed twice with PBS, and actin cytoskeleton was visualized with rhodamine-conjugated phalloidin according to the manufacturer's instructions (Invitrogen). The cell images were captured with a Yokogawa CSU22 confocal fluorescence microscope with 588-nm laser excitation.

[5] = tested on: HepG2 cells; test: Focal adhesion formation, anti-vinculin staining; assay type: cell-based; details: HepG2, immediately after seeding
Protocol: Trypsin-treated HepG2 cells were plated for 3 hours onto coverslips to which adhesamine was added; fixed thereon; and stained with anti-vinculin antibody and Alexa Fluor 488 goat anti-mouse IgG.
The cells were also stained with an antibody against vinculin, a marker of focal adhesion. […] These observations indicate that the adhesamine-induced contacts of the cells to the plates initiate a normal schedule of cell adhesion^(2,3).

[6] = tested on: CHO F17 cells; test: Cell adhesion assay, CHO F17; assay type: cell-based; details: CHO F17, 6 μM
Protocol: (A) and (B) show CHO-K1 (wild-type) cells incubated with 1% (v/v) DMSO (A) or 6 μM adhesamine (B). (C) and (D) show CHO 677 incubated with 1% (v/v) DMSO (A) or 6 μM adhesamine (B). […] Cells were seeded onto adhesamine-added or fibronectin-coated plastic wells. The concentrations of adhesamine and fibronectin were 6 μM and 5 μg/mL, respectively. Adhered cells were counted at 5 hours after seeding. Each point represents average±SD.
For CHO wild-type and CHO mutant cell lines, 100 μL of trypsinized cell suspension in a culture medium was added to each well at a density of 2×10^5 cells/mL. After 5-hour incubation at 37° C., non-adhered cells were removed by washing each well with PBS twice, and the attached cells were counted with a Neubauer counting chamber (Digital Bio). To calculate adhesion rates, the cell numbers before washing were assigned a value of 100%. Each assay was conducted in triplicate, and the means and standard derivations were calculated for a minimum of three independent experiments.

## CSc1nc(Cl)c(C=O)c(N2CC[N+]3(CC2)CC[N+]2(CCN(c4nc(SC)nc(Cl)c4C=O)CC2)CC3)n1 [adhesamine]
[1]
  enhancement of the adhesion of HepG2 cells: up to twofold
[2]; HepG2, 6 μM
  cytotoxicity: no obvious cytotoxicity
[2]; HepG2, 6 μM, 24, 48, 72 hours, vs 1% DMSO
  growth of the cells: slightly enhanced
[3]; 6 μM
  cytotoxicity: no obvious cytotoxicity
[3]; 6 μM, 24, 48, 72 hours, vs 1% DMSO
  growth of the cells: slightly enhanced
[4]
  actin cytoskeleton structure in adhered cells: well-organized cortical actin structure
[5]
  vinculin-containing focal adhesions: Vinculin-containing focal adhesions were observed
[6]
  response of cell adhesion to adhesamine: responded
